Assay results: patent EP1992637A1, “1-Aminocyclopentane-1,3,4- tricarboxylic acids derivatives” (priority 2007, dated 2008)

What was measured:
haldol-induced catalepsy = assay: Haldol-induced catalepsy model of Parkinson's disease, bar test; format: in vivo; details: mice
Method: The compounds of the invention were evaluated in a model of Parkinson's disease, the haldol-induced catalepsy model in mice. Catalepsy was assessed using the bar test in mice submitted to acute administration of the dopamine D2 receptor antagonist haloperidol (1mg/kg, intraperitoneally or ip). Mice (male RjOrl: Swiss mice, weighing 30 - 35 g at the beginning of the experiment) placed in group of 5 in Plexiglas cages, were injected with haloperidol (1 mg/kg ip). […] The catalepsy response of one mouse was measured as the time the animal maintained an imposed posture with both forelimbs placed on a horizontal 0.9cm-diameter wire bar suspended 4cm above a platform. The end point of catalepsy was considered to occur when both forelimbs were removed from the bar, the mouse climbed onto the bar or if the animal moved its head in an exploratory manner. A cutoff time of 180 seconds was applied. The degree of catalepsy was scored 60 minutes after haloperidol administration and continued at 30 or 60 minutes intervals for a total of 240-300 minutes. Between measurements, the animals were returned to their home cages. This procedure was adapted from the literature: (e.g. Pires et al., Braz J Med and Biol Res 38, 1867-1872, 2005; Shiozaki et al., Psychopharmacology 147, 90-95, 1999). Parent compound and corresponding vehicle, given either intraperitoneally (ip) or orally (po), were administered 30 minutes after haldol administration. Prodrugs and corresponding vehicle were injected 4h before haldol administration. Prodrug dose is expressed in equivalent of parent compound.
Data analysis: the figures 2 and 3 show the mean time of latency spent on the bar for each group of animals. At each time-point, the anti-cataleptic effects of parent compound and prodrugs were compared to vehicle-treated groups using 1-factor ANOVA test followed by the Dunnett's test. Datapoints marked with "*" in figures 3 or 4 indicates p<0.05; "**" indicates p<0.01.

[1] = In vivo pharmacokinetic evaluation (ACPT-I in plasma, LC/MS/MS); details: rat, po, 30 mg/kg
[2] = 100mg/kg orally (dose in equivalent of parent compound), given 4h before haldol (1 mg/kg ip)

| bioavailability [1] | SMILES | anticataleptic activity (haldol-induced catalepsy; 30mg/kg ip, given 30 minutes after haldol (1 mg/kg ip)) | anticataleptic activity (haldol-induced catalepsy; 100mg/kg oral administration, given 30 minutes after haldol (1 mg/kg ip)) | anticataleptic activity (haldol-induced catalepsy; [2]) |
| --- | --- | --- | --- | --- |
| 1.14% | N[C@@]1(C(=O)O)C[C@H](C(=O)O)[C@H](C(=O)O)C1 [ACPT-I, (1S, 3R, 4S) -1-aminocyclopentane-1,3,4-tricarboxylic acid] | significantly reduced catalepsy | no anticataleptic activity |  |
|  | CC(C)C[C@H](N)C(=O)N[C@@]1(C(=O)O)C[C@H](C(=O)O)[C@H](C(=O)O)C1 [Example 1, (1S, 3R, 4S)-1-{[(2'S)-2'-amino-4'-methylpentanoyl]amino}cyclopentane-1,3,4-tricarboxylic acid] |  |  | significantly reduced the haldol-induced cataleptic response |
|  | C[C@H](N)C(=O)N[C@@]1(C(=O)O)C[C@H](C(=O)O)[C@H](C(=O)O)C1 [Example 3, (1S, 3R, 4S)-1-{[(2'S)-'2-aminopropanoyl]amino}cyclopentane-1,3,4-tricarboxylic acid] |  |  | significantly reduced the haldol-induced cataleptic response |
